Numbers after ± are expanded uncertainties.
Columns and labels:
[1] = Molar enthalpy of transition or fusion; conditions: Crystal; DSC
[2] = Crystal

Row | Molar enthalpy of transition or fusion [1] [kcal/mol] | Normal melting temperature ([2]; DTA) [°C] | SMILES | Normal melting temperature ([2]; visual observation) [°C]
1 | 6.25 ± 0.182 | 132.2 ± 0.5 | CCCC[n+]1ccccc1.[Cl-] [1-butylpyridinium chloride] | –
2 | – | – | CCC[N+]1(C)CCCCC1.[Cl-] [1-methyl-1-propyl-piperidinium chloride] | 225.2 ± 0.5
3 | 1.61 ± 0.0693 | 169 ± 0.5 | CC(O)C[N+](C)(C)C.[Cl-] (stereo not drawn) [beta.-methylcholine chloride] | –
4 | – | – | C[N+](C)(C)CCO.[Br-] [choline bromide] | 308.5 ± 0.5
5 | – | – | C[N+](C)(CCO)CCO.[Cl-] [diethanoldimethylammonium chloride] | 290.6 ± 0.5
6 | – | – | CC[N+](CC)(CC)CC.[Cl-] [tetraethylammonium chloride] | 262.2 ± 0.5
7 | – | – | C[N+](C)(C)C.[Cl-] [tetramethylammonium chloride] | 341.6 ± 0.5
8 | – | – | C[N+](C)(C)Cc1ccccc1.[Cl-] [trimethylbenzylammonium chloride] | 236.1 ± 0.5
